Measurements: patent US7585938B2, “Gamma-secretase inhibitors” (priority 2002, dated 2009)
In brackets after ≈: the same amount, converted by molar mass.

Legend:
[1] = Examination of solubility, visually and by microscopy; type: physicochemical
Excerpt: The compound synthesized in Example 1 was examined for its solubility, visually as well as by microscopy.

γ-secretase [2] = test: Amyloid protein determination by ELISA in culture supernatant of COS cells with introduced wild-type human APP695 gene; type: cell-based, simian; conditions: for Inhibition rate (%) Aβ42(43) / Inhibition rate (%) Total Aβ: 100 µM
Excerpt: (§1) The human APP695 gene used in this example (whose nucleotide sequence in its coding region is shown as SEQ ID NO:6) was what had been screened from a cDNA library prepared from the dead brain of a normal human by a conventional method, and its entire nucleotide sequence was confirmed by a conventional method. Briefly, about 1 g of frozen cerebral tissue was phenol-treated and the supernatant aqueous solution was collected. After repeating this process, mRNA was precipitated by addition of ethanol. After dissolving in 20 mM tris-HCl, pH 8., 0.1 mM EDTA, cDNA was synthesized with reverse transcriptase using oligo-dT primers and the mRNA as a template. After remaining RNA was digested with RNase, using thus obtained single-stranded cDNA as a template, double-stranded cDNA was synthesized with DNA polymerase. The double-stranded cDNA was then blunt-ended with T4 DNA polymerase. Following introduction of methylation into a EcoR1 restriction site using EcoR1 methylase, an EcoR1 linker adapter was ligated using ligase. After removal of unreacted free adapter by gel filtration, ligation to λgt11 vector was effected using DNA ligase, and thus ligated product was incorporated into λ-phage using a packaging kit. E. coli cells in agar plates were infected with the λ-phage thus obtained, and the solution containing thus proliferated phage was used as cDNA library. For APP cDNA cloning, oligonucleotides that were anticipated based on the amyloid protein were radio-labeled using γ^32P-ATP and DNA kinase to provide the labeled nucleotides as probes. 10^6 pfu (plaque forming units) of phage were allowed to form plaques on agar plates, and brought into contact with a nylon membrane. The phage DNAs that stuck to the membrane were denaturated to single-stranded DNAs by alkali treatment of the nylon membrane, and the membrane then was neutralized, to which, after incubation in a solution containing salmon sperm DNAs, the ^32P radio-labeled nucleotide probes were added and allowed to hybridize for 12 hours. At this stage, where aimed APP gene incorporated to the phage and one of the oligonucleotides were mutually complementary in their sequences, they would form a double-stranded DNA. The nylon membrane was then exposed to X-ray film, and plaques on the agar plates corresponding to spots of exposure were identified with phages carrying APP gene (fragment). By repeating this process, a single phage was finally obtained. The nucleotide sequence of the APP gene incorporated into the phage was determined by publicly known Sanger method.
(§2) APP gene was efficiently introduced from outside into COS cells, which is a cultured cell line of simian kidney's origin, using Lipofectamine Plus reagent (Invitrogen K.K.) according to its protocol. Briefly, 1 μg of APP gene was dissolved in 100 μl of OPTI-MEM, mixed with 6 μl of Plus reagent and left to stand for 15 minutes at room temperature. In parallel, 4 μl of Lipofectamine dissolved in 100 μl of OPTI-MEM medium was prepared. This was then mixed with the APP gene solution, and left to stand for further 15 minutes. Six-well culture plates were provided in advance in each well of which was placed 800 μl of culture that had been prepared by culturing COS cells at 75% to 80% cell density in a DMEM medium supplemented with 10% fetal bovine serum, and then replacing the medium with OPTI-MEM medium. Two hundred pI of the reaction mixture containing the gene were added to each culture well. Twelve hours after introduction of the gene, the medium was changed from the OPTI-MEM medium containing the introduced gene to a 10% fetal bovine serum-supplemented DMEM medium free of the introduced gene. To this culture, the compound obtained in Example 1 was added. After 36 to 48 hours, culture supernatant was collected, transferred to centrifuging tubes, and centrifuged at 10,000 r.p.m. at room temperature for 5 minutes. The supernatant was used as a sample containing amyloid protein. […]

γ-secretase [3] = test: Amyloid protein determination by ELISA in culture supernatant of COS cells with introduced London-type (Val717Ile) APP695 gene; type: cell-based, simian; conditions: for Inhibition rate (%) Total Aβ: 100 µM
Excerpt: as §1, §2

γ-secretase [4] = test: Amyloid protein determination by ELISA in culture supernatant of COS cells with introduced Sweden-type APP695 gene; type: cell-based, simian; conditions: for Inhibition rate (%) Aβ42(43) / Inhibition rate (%) Total Aβ: 100 µM
Excerpt: as §1, §2

γ-secretase [5] = test: Amyloid protein determination by ELISA in cells with introduced APP artificial fragment C100 instead of APP695; type: cell-based, simian; conditions: Inhibitor 100 μM; for Inhibition rate (%) Aβ40 / Inhibition rate (%) Aβ42(43): 100 µM
γ-secretase [6] = biological target: T1, γ-secretase (Homo sapiens, UniProt P49768); test: Amyloid protein determination by ELISA in IMR32 cells with introduced human APP695 gene carrying the Sweden mutation; type: cell-based
T1 construct: endogenous in cells; host or cells: IMR32 cells (transfected only with the substrate APP gene)
Procedure: APP gene was efficiently introduced from outside into COS cells, which is a cultured cell line of simian kidney's origin, using Lipofectamine Plus reagent (Invitrogen K.K.) according to its protocol. Briefly, 1 μg of APP gene was dissolved in 100 μl of OPTI-MEM, mixed with 6 μl of Plus reagent and left to stand for 15 minutes at room temperature. In parallel, 4 μl of Lipofectamine dissolved in 100 μl of OPTI-MEM medium was prepared. This was then mixed with the APP gene solution, and left to stand for further 15 minutes. Six-well culture plates were provided in advance in each well of which was placed 800 μl of culture that had been prepared by culturing COS cells at 75% to 80% cell density in a DMEM medium supplemented with 10% fetal bovine serum, and then replacing the medium with OPTI-MEM medium. Two hundred pI of the reaction mixture containing the gene were added to each culture well. Twelve hours after introduction of the gene, the medium was changed from the OPTI-MEM medium containing the introduced gene to a 10% fetal bovine serum-supplemented DMEM medium free of the introduced gene. To this culture, the compound obtained in Example 1 was added. After 36 to 48 hours, culture supernatant was collected, transferred to centrifuging tubes, and centrifuged at 10,000 r.p.m. at room temperature for 5 minutes. The supernatant was used as a sample containing amyloid protein. The shorter and the longer amyloid protein components contained in each sample can be separately determined using a commercially available ELISA kit for amyloid protein determination (KHB3441: Signal Select™ Human ⊖ Amyloid1-42 ELISA Kit, or KHB3481: Signal Select™ Human β Amyloid1-40 ELISA Kit, BioSource International, Inc. CA, USA). Those ELISA kits for amyloid determination included 96-well ELISA plates coated with a primary antibody to these two types of amyloid proteins. Following eliminating non-specific antigen-antibody reactions by allowing a usual non-specific blocking reaction, a sample medium containing the amyloid protein to be measured was reacted. Then, after usual washing, one of secondary antibodies was added. The secondary antibodies consisted of two deferent antibodies that can distinguish between the two types of amyloid proteins, the one is the shorter amyloid protein and the other is the longer amyloid antibody, without no cross reactivity. The difference between the two amyloid proteins is the absence or presence of the two amino acid residues (isoleucine and alanine) at their carboxyl terminus. The antibody that detects the former is considered to recognize valine at the carboxyl terminus and the antibody that detects the latter is thought to recognize the alanine.
The compounds (1′a) and (1′b) obtained above were measured for inhibitory activity by the same method as in Example 3. As the system for evaluation, however, IMR32, a neural system cell line of human origin, was used after introducing to it a human APP695 gene into which the Sweden mutation had been incorporated.

[7] = inhibitor 100 μM (Table 2), listed as Compound
[8] = inhibitor 100 μM (Table 2), listed as inhibitor
[9] = Inhibitor 100 μM, London-type APP695, COS cells
[10] = London-type APP695, inhibitor 100 μM (Table 2)
[11] = Inhibitor 100 μM, Sweden-type APP695, COS cells
[12] = Sweden-type APP695, inhibitor 100 μM (Table 2), listed as Compound
[13] = Sweden-type APP695, inhibitor 100 μM (Table 2), listed as inhibitor

Compound: COC(=O)[C@H](CC(C)C)NC(=O)[C@H](CCSC)NC(=O)[C@@H](C[C@@H](O)[C@H](CC(C)C)NC(=O)OC(C)(C)C)C(C)C [Compound 1, Boc-Leu*-Val-Met-Leu-OMe]
- solubility ([1]; DMEM medium containing 10% fetal bovine serum, plasma or biological fluid, concentration 10 ng/ml): > 0.01 µg/mL
- solubility ([1]; DMEM medium containing 10% fetal bovine serum, plasma or biological fluid, concentration 1 μg/ml): 0.01 to 1 µg/mL (≈ 0.017 to 1.7 µM)
- solubility ([1]; DMEM medium containing 10% fetal bovine serum, plasma or biological fluid, concentration 100 μg/ml): < 100 µg/mL
- solubility ([1]; DMSO, organic solvent or mixture, concentration 10 ng/ml): > 0.01 µg/mL
- solubility ([1]; DMSO, organic solvent or mixture, concentration 1 μg/ml): > 1 µg/mL
- solubility ([1]; DMSO, organic solvent or mixture, concentration 100 μg/ml): > 100 µg/mL
- solubility ([1]; phosphate buffer, pH 7, aqueous buffer, Phosphate buffer (pH 7.0), concentration 10 ng/ml): > 0.01 µg/mL
- solubility ([1]; phosphate buffer, pH 7, aqueous buffer, Phosphate buffer (pH 7.0), concentration 1 μg/ml): 0.01 to 1 µg/mL (≈ 0.017 to 1.7 µM)
- solubility ([1]; phosphate buffer, pH 7, aqueous buffer, Phosphate buffer (pH 7.0), concentration 100 μg/ml): < 100 µg/mL
- solubility ([1]; physiological saline, saline or isotonic, concentration 10 ng/ml): > 0.01 µg/mL
- solubility ([1]; physiological saline, saline or isotonic, concentration 1 μg/ml): 0.01 to 1 µg/mL (≈ 0.017 to 1.7 µM)
- solubility ([1]; physiological saline, saline or isotonic, concentration 100 μg/ml): < 100 µg/mL
- inhibitory activity for Aβ40 production (γ-secretase [2]): about 98%
- Aβ40 (γ-secretase [2]; Inhibitor 100 μM, COS cells): 218 pg/mL
- Aβ42(43) (γ-secretase [2]; Inhibitor 100 μM, COS cells): 415 pg/mL
- Ratio of Aβ42(43)/Aβ40 (γ-secretase [2]; Inhibitor 100 μM, COS cells): 1.90
- Inhibition rate (%) Aβ42 (γ-secretase [2]; inhibitor 100 μM (Table 2)): 98%
- Inhibition rate (%) Aβ42(43) (γ-secretase [2]; [7]): 71%
- Inhibition rate (%) Total Aβ (γ-secretase [2]; [7]): 98%
- Inhibition rate (%) Aβ42(43) (γ-secretase [2]; [8]): about 71%
- Inhibition rate (%) Total Aβ (γ-secretase [2]; [8]): about 98%
- Aβ40 (γ-secretase [3]; [9]): 151 pg/mL
- Aβ42(43) (γ-secretase [3]; [9]): 855 pg/mL
- Ratio of Aβ42(43)/Aβ40 (γ-secretase [3]; [9]): 5.66
- inhibitory activity on amyloid protein production (γ-secretase [3]; London mutation (Val717Ile), compared with wild-type sequence): nearly the same level of inhibitory activity as that noted on the wild-type sequence
- Inhibition rate (%) Aβ42 (γ-secretase [3]; [10]): 98%
- Inhibition rate (%) Aβ42(43) (γ-secretase [3]; [10]): 70%
- Inhibition rate (%) Total Aβ (γ-secretase [3]; London-type APP695, inhibitor 100 μM (Table 2), listed as Compound): 89%
- Inhibition rate (%) Total Aβ (γ-secretase [3]; London-type APP695, inhibitor 100 μM (Table 2), listed as inhibitor): more than 80%
- Aβ40 (γ-secretase [4]; [11]): 1726 pg/mL
- Aβ42(43) (γ-secretase [4]; [11]): 1311 pg/mL
- Ratio of Aβ42(43)/Aβ40 (γ-secretase [4]; [11]): 0.76
- inhibitory activity for Aβ40 (γ-secretase [4]; Sweden double mutation): about 90%
- Inhibition rate (%) Aβ40 (γ-secretase [4]; Sweden-type APP695, inhibitor 100 μM (Table 2)): 90%
- Inhibition rate (%) Aβ42(43) (γ-secretase [4]; [12]): 48%
- Inhibition rate (%) Total Aβ (γ-secretase [4]; [12]): 84%
- Inhibition rate (%) Aβ42(43) (γ-secretase [4]; [13]): about 48%
- Inhibition rate (%) Total Aβ (γ-secretase [4]; [13]): more than 80%
- Aβ40 (γ-secretase [5]): 100 pg/mL
- Aβ42(43) (γ-secretase [5]): 62 pg/mL
- Inhibition rate (%) Total Aβ (γ-secretase [5]): 85%
- Total Aβ (γ-secretase [5]): 162 pg/mL
- Inhibition rate (%) Aβ40 (γ-secretase [5]; listed as Inhibitor): 89%
- Inhibition rate (%) Aβ42(43) (γ-secretase [5]; listed as Inhibitor): 51%
- Inhibition rate (%) Aβ40 (γ-secretase [5]; listed as inhibitor): about 90%
- Inhibition rate (%) Aβ42(43) (γ-secretase [5]; listed as inhibitor): about 50%

Compound: CSCC[C@H](NC(=O)[C@@H](NC(=O)[C@H](CC(C)C)C[C@@H](O)[C@@H](NC(=O)OC(C)(C)C)[C@@H](C)OC(C)(C)C)C(C)C)C(=O)NCc1ccccc1 [Compound 1′a, t-But-OCO-Thr*-Leu-Val-Met-NH-Bzl]
- Aβ40 (γ-secretase [6]; 10 μM): 31 pg/mL
- Aβ40 (γ-secretase [6]; 100 μM): 0 pg/mL
- inhibition at 10 µM (γ-secretase [6]; IMR-32, Aβ40, 10 μM, read-out: Inhibition rate (%)): 73%
- inhibition at 100 µM (γ-secretase [6]; IMR-32, Aβ40, 100 μM, read-out: Inhibition rate (%)): 100%

Compound: t-But-OCO-Thr*-Leu-Val-Met-NH-Bzl [Compound 1′b]
- Aβ40 (γ-secretase [6]; 10 μM): 72 pg/mL
- Inhibition rate (%) (γ-secretase [6]; 10 μM): 38%
- Aβ40 (γ-secretase [6]; 100 μM): 26 pg/mL
- Inhibition rate (%) (γ-secretase [6]; 100 μM): 78%
